Experimental data as given in patent US11584744B2 (UNIVERSITY OF WASHINGTON, priority 2017, dated 2023).
Values after ≈ are worked out from the molar mass of the structure shown. Where two headings read alike, the source gives them in different places.

Assays:
T. brucei = T. brucei growth inhibition; format: cell-based, Trypanosoma brucei; conditions: Trypanosoma brucei; read-out: (D) T. brucei EC50
MetRS (T. brucei) = target: T1, MetRS (T. brucei) (Trypanosoma brucei brucei, UniProt Q38C91); experiment: MetRS (T. brucei) enzyme inhibition; format: biochemical
T1 sequence (Q38C91 1-773): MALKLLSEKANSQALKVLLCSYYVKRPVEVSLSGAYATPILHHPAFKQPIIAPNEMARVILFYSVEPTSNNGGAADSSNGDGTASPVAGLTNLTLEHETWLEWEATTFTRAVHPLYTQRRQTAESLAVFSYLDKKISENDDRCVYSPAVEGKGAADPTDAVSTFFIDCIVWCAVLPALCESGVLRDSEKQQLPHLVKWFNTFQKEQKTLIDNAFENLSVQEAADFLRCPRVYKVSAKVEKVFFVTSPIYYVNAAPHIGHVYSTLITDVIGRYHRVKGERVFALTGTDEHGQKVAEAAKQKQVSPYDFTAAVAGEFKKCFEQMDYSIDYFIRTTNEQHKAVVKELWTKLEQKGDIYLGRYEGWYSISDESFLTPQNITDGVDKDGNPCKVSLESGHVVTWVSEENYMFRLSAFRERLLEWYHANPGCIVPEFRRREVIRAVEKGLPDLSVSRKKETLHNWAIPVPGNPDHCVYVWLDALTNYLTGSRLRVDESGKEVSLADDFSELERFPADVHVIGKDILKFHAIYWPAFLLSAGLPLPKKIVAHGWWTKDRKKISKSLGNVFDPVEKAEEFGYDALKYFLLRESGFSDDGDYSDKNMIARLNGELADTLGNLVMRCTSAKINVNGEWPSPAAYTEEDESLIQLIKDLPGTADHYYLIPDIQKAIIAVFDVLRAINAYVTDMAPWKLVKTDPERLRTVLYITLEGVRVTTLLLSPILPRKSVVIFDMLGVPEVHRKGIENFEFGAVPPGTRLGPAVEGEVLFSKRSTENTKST

MetRS (C. parvum) = MetRS (C. parvum) (Cryptosporidium parvum, UniProt Q5CVN0); experiment: MetRS (C. parvum) enzyme inhibition; format: biochemical; conditions: read-out: (C) MetRS (C. parvum) IC50
[1] = test system: S. aureus MSSA (ATCC 29213); experiment: MIC susceptibility testing; format: cell-based, Staphylococcus aureus; conditions: S. aureus ATCC 29213; for MIC: Staphylococcus aureus, read-out: (F) S. aureus (ATCC 29213) MIC
Source text: Media and culture conditions. Mueller Hinton broth (MHB), cation adjusted Mueller Hinton broth (CA-MHB), and Brain Heart Infusion broth (BHI) were purchased from Becton Dickinson (Franklin Lakes, N.J.). Tryptic soy agar (TSA) plates, TSA with 5% sheep blood plates, and CA-MHB with 3% laked horse blood were purchased from Remel (San Diego, Calif.). MHB was used to assay all Staphylococcus aureus strains. CA-MHB was used for Staphylococcus epidermidis, Enterococcus faecalis, Enterococcus faecium, Escherichia coli, and Pseudomonas aeruginosa. CA-MHB supplemented with 3% laked horse blood was used for Streptococcus pneumoniae and Streptococcus pyogenes. Staphylococcus, Enterococcus, Escherichia, and Pseudomonas strains were cultured at 37° C. with ambient air. Streptococcus strains were cultured in 37° C. with 5% CO2. Separate conditions for radiolabeled precursor uptake assays are described below.
Susceptibility testing: Minimum inhibitory concentration (MIC) determinations were performed in triplicate in 96-well round bottom microtiter plates (Corning, Corning N.Y.) as described by the Clinical and Laboratory Standards Institute (CLSI). Serial two-fold dilutions of compounds were added to plates in 50 μL volumes. An additional 50 μL of media containing bacterial cells (1×10^6 CFUs/mL) was then added to each well. Maximum DMSO concentrations were 0.5%. Plates were incubated at 37° C. for at least 18 h before reading the susceptibility result by optical absorbance (OD600) using a BioTek ELx800. The lowest concentration causing ≥90% growth inhibition compared to the untreated control was recorded as the MIC (and also corresponded to the visual MIC). MICs were measured at least twice and the higher value (if different) was recorded herein.

T. cruzi = T. cruzi growth inhibition; format: cell-based, Trypanosoma cruzi; conditions: read-out: (E) T. cruzi EC50

Chain of MetRS (C. parvum) (Q5CVN0 entry or part of it): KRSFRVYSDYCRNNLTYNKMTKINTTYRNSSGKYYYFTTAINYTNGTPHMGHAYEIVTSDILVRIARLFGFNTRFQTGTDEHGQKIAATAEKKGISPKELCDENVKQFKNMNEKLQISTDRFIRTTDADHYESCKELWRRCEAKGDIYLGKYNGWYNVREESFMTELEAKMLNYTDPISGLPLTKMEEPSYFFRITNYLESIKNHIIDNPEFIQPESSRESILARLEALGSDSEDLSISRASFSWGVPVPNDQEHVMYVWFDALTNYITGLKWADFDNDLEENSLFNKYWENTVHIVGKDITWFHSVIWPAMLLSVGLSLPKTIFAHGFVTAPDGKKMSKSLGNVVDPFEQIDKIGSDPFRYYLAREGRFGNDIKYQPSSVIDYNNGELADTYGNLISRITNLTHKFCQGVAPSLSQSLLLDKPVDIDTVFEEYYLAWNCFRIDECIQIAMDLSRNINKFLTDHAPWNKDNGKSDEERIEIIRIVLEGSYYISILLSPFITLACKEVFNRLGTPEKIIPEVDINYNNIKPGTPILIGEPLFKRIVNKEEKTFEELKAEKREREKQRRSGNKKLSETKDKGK

| SMILES | EC50 (T. brucei) [nM] | IC50 (MetRS (T. brucei)) [nM] | IC50 (MetRS (C. parvum)) [nM] | MIC [1] [µg/mL] | EC50 (T. cruzi; Trypanosoma cruzi) [nM] | EC50 (T. cruzi) [nM] | (F) S. aureus (ATCC 29213) MIC [1] [µg/mL] |
| --- | --- | --- | --- | --- | --- | --- | --- |
| CSc1ncc(Cc2ccc(Cl)cc2Cl)n1Cc1nc2nc(Cl)ccc2[nH]1 [Compound 2113, 1-({5-chloro-1H-imidazo[4,5-b]pyridin-2-yl}methyl)-5-[(2,4-dichlorophenyl)methyl]-2-(methylsulfanyl)-1H-imidazole] | 1930 | 2000 | > 1000 | – | – | – | – |
| CCn1c(Cc2ccc(Cl)cc2Cl)cn(CCc2nc3ccc(F)nc3[nH]2)c1=O [Compound 2121, 4-[(2,4-dichlorophenyl)methyl]-3-ethyl-1-(2-{5-fluoro-1H-imidazo[4,5-b]pyridin-2-yl}ethyl)-2,3-dihydro-1H-imidazol-2-one] | 1340 | 41 | 476 | – | – | – | – |
| FC(F)(F)c1ccc(-c2cccc3nc(Cc4nc5nc(Cl)ccc5[nH]4)cn23)c(Cl)c1 [Compound 2126, 2-({5-chloro-1H-imidazo[4,5-b]pyridin-2-yl}methyl)-5-[2-chloro-4-(trifluoromethyl)phenyl]imidazo[1,2-a]pyridine] | 1780 | 40 | > 1000 | – | – | – | – |
| Fc1ccc2[nH]c(Cc3cn4c(-c5ccc(C(F)(F)F)cc5Cl)cccc4n3)nc2n1 [Compound 2127, 5-[2-chloro-4-(trifluoromethyl)phenyl]-2-({5-fluoro-1H-imidazo[4,5-b]pyridin-2-yl}methyl)imidazo[1,2-a]pyridine] | > 2000 | 63 | > 1000 | – | – | – | – |
| Clc1cc(Cl)cc(-c2cccc3nc(Cc4nc5nc(Cl)ccc5[nH]4)cn23)c1 [Compound 2130, 2-({5-chloro-1H-imidazo[4,5-b]pyridin-2-yl}methyl)-5-(3,5-dichlorophenyl)-imidazo[1,2-a]pyridine] | 196 | 190 | > 1000 | – | – | – | – |
| Fc1ccc2[nH]c(Cc3cn4c(-c5cc(Cl)cc(Cl)c5)cccc4n3)nc2n1 [Compound 2131, 5-(3,5-dichlorophenyl)-2-({5-fluoro-1H-imidazo[4,5-b]pyridin-2-yl}methyl)-imidazo[1,2-a]pyridine] | 197 | 325 | 806 | – | – | – | – |
| COc1cc(Cl)c(-c2cccc3nc(Cc4nc5nc(Cl)ccc5[nH]4)cn23)cc1Cl [Compound 2132, 2-({5-chloro-1H-imidazo[4,5-b]pyridin-2-yl}methyl)-5-(2,5-dichloro-4-methoxyphenyl)imidazo[1,2-a]pyridine] | 508 | < 40 | 656 | – | – | – | – |
| COc1cc(Cl)c(-c2cccc3nc(Cc4nc5nc(F)ccc5[nH]4)cn23)cc1Cl [Compound 2133, 5-(2,5-dichloro-4-methoxyphenyl)-2-({5-fluoro-1H-imidazo[4,5-b]pyridin-2-yl}methyl)imidazo[1,2-a]pyridine] | 849 | < 40 | 354 | – | – | – | – |
| CCn1c(Cc2ccc(Cl)cc2Cl)cn(C(C)c2nc3ccc(Cl)nc3[nH]2)c1=O (stereo not shown) [Compound 2142, 1-(1-{5-chloro-1H-imidazo[4,5-b]pyridin-2-yl}ethyl)-4-[(2,4-dichlorophenyl)-methyl]-3-ethyl-2,3-dihydro-1H-imidazol-2-one] | 489 | < 40 | 89.4 | – | – | – | – |
| CCn1c(Cc2ccc(Cl)cc2Cl)cn(C(C)c2nc3nc(F)ccc3[nH]2)c1=O (stereo not shown) [Compound 2143, 4-[(2,4-dichlorophenyl)methyl]-3-ethyl-1-(1-{5-fluoro-1H-imidazo[4,5-b]pyridin-2-yl}ethyl)-2,3-dihydro-1H-imidazol-2-one] | 806 | < 40 | 96.6 | – | – | – | – |
| COc1ccc(-c2cccn3cc(Cc4nc5nc(F)ccc5[nH]4)nc23)c(Cl)c1 [Compound 2148, 8-(2-chloro-4-methoxyphenyl)-2-({5-fluoro-1H-imidazo[4,5-b]pyridin-2-yl}methyl)imidazo[1,2-a]pyridine] | > 2000 | 60 | 993 | – | – | – | – |
| COc1ccc(-c2cccn3cc(Cc4nc5nc(Cl)ccc5[nH]4)nc23)c(Cl)c1 [Compound 2149, 2-({5-chloro-1H-imidazo[4,5-b]pyridin-2-yl}methyl)-8-(2-chloro-4-methoxyphenyl)imidazo[1,2-a]pyridine] | > 2000 | 45 | > 1000 | – | – | – | – |
| COc1ccc(-c2cccn3c(SC)c(Cc4nc5nc(Cl)ccc5[nH]4)nc23)c(Cl)c1 [Compound 2150, 2-({5-chloro-1H-imidazo[4,5-b]pyridin-2-yl}methyl)-8-(2-chloro-4-methoxyphenyl)-3-(methylsulfanyl)imidazo[1,2-a]pyridine] | 897 | < 40 | 468 | – | – | – | – |
| COc1ccc(-c2cccn3c(S(C)(=O)=O)c(Cc4nc5nc(Cl)ccc5[nH]4)nc23)c(Cl)c1 [Compound 2151, 2-({5-chloro-1H-imidazo[4,5-b]pyridin-2-yl}methyl)-8-(2-chloro-4-methoxyphenyl)-3-methanesulfonylimidazo[1,2-a]pyridine] | 364 | < 40 | 614 | – | – | – | – |
| Clc1ccc(Cc2cn(Cc3nc4nc(Cl)ccc4[nH]3)c(SCc3ccccn3)n2)c(Cl)c1 [Compound 2157, 2-({[1-({5-chloro-1H-imidazo[4,5-b]pyridin-2-yl}methyl)-4-[(2,4-dichlorophenyl)methyl]-1H-imidazol-2-yl]sulfanyl}methyl)pyridine] | > 200 | < 40 | 107 | – | – | – | – |
| COc1ccc(Cc2cn(Cc3nc4nc(F)ccc4[nH]3)c(=O)n2CC(F)F)c(Cl)c1 [Compound 2259, 4-[(2-chloro-4-methoxyphenyl)methyl]-3-(2,2-difluoroethyl)-1-({5-fluoro-1H-imidazo[4,5-b]pyridin-2-yl}methyl)-2,3-dihydro-1H-imidazol-2-one] | – | – | – | 0.422 (≈ 0.934 µM) | 32.2 | 41.4 | – |
| COc1cc(Cl)c(-c2cccc3nc(Nc4nc5nc(F)ccc5[nH]4)cn23)cc1OC [Compound 2267, 5-(2-chloro-4,5-dimethoxyphenyl)—N-{5-fluoro-1H-imidazo[4,5-b]pyridin-2-yl}imidazo[1,2-a]pyridin-2-amine] | > 2000 | – | – | > 2 | – | – | – |
| Oc1cc(-c2cccc3nc(Cc4nc5nc(Cl)ccc5[nH]4)cn23)c(Cl)cc1Cl [Compound 2268, 2,4-dichloro-5-[2-({5-chloro-1H-imidazo[4,5-b]pyridin-2-yl}methyl)imidazo[1,2-a]pyridin-5-yl]phenol] | 186 | – | – | 0.69 (≈ 1.55 µM) | – | – | 0.345 |
| CCOc1cc(-c2cccc3nc(Cc4nc5nc(Cl)ccc5[nH]4)cn23)c(Cl)cc1Cl [Compound 2269, 2-({5-chloro-1H-imidazo[4,5-b]pyridin-2-yl}methyl)-5-(2,4-dichloro-5-ethoxyphenyl)imidazo[1,2-a]pyridine] | 102 | – | – | 1.77 (≈ 3.74 µM) | – | – | 1.44 |
| CCn1c(Cc2cc(OC)c(OC)cc2Cl)cn(Cc2nc3nc(Cl)ccc3[nH]2)c1=O [Compound 2275, 1-({5-chloro-1H-imidazo[4,5-b]pyridin-2-yl}methyl)-4-[(2-chloro-4,5-dimethoxyphenyl)methyl]-3-ethyl-2,3-dihydro-1H-imidazol-2-one] | < 0.91 | – | – | – | – | – | – |
| CCn1c(Cc2ccc(OC)cc2Cl)cn(Cc2nc3cnc(Cl)nc3[nH]2)c1=O [Compound 2286, 4-[(2-chloro-4-methoxyphenyl)methyl]-1-[(2-chloro-7H-purin-8-yl)methyl]-3-ethyl-2,3-dihydro-1H-imidazol-2-one] | > 2000 | – | – | – | – | – | – |
